This note sets out measurements from patent publication US8148097B2, “Screening method for identification of compounds with calcium-independent phospholipase A2β (iPLA2β) modulating activity” (Washington University, priority 2005, dated 2012).

In experiment [1] the target is T1, iPLA2β (Cricetulus griseus, UniProt A0A3L7I2I8).
T1 construct: (His)6; made in house; host or cells: Sf9 insect cells (baculovirus)
T1 sequence (A0A3L7I2I8 1-752 isoform A0A3L7I2I8-2): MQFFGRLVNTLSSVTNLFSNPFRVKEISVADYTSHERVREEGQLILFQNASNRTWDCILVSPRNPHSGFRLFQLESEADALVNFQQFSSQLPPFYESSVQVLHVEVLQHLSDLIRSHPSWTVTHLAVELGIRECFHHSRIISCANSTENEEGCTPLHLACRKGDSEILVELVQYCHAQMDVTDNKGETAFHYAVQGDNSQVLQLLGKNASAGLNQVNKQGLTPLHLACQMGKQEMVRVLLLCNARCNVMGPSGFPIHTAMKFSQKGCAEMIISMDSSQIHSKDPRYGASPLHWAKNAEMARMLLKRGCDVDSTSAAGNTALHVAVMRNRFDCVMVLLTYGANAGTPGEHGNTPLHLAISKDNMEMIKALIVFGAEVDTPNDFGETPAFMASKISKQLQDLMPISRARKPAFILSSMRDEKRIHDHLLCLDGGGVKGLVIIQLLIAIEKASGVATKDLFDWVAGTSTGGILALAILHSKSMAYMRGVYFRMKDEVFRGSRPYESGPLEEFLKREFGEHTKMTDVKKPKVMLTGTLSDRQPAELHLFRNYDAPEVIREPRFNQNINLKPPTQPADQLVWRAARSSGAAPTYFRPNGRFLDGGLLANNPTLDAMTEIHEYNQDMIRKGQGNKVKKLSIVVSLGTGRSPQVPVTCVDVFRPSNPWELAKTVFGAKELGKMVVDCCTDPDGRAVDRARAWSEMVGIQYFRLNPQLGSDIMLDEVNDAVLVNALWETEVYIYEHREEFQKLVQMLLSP
The experiment can be described thus: Real-time fluorescence BODIPY-PC assay of iPLA2β phospholipase A2 activity. The format is biochemical. The method, then:
(§1) FIGS. 11A-11D—Purified iPLA2β+/−Ca^2+/CaM was incubated with POPC/BODIPY-PC (95:5 mol %) host vesicles for 2 min at 37° C. with the indicated concentrations of guest oleoyl-CoA. Relative fluorescence was recorded utilizing 495 nm excitation and 515 nm emission wavelengths as described in Experimental Procedures. FIGS. 11E-11H—ESI-MS analysis of phosphatidylcholine molecular species from the reactions described in panels A and D. Spectra were acquired in the positive ion mode with the indicated internal standards as described in Experimental Procedures. FIG. 11I—Purified iPLA2β in the presence or absence of Ca^2+/CaM was incubated with 1-palmitoyl-2-[1-^14C]-oleoyl-sn-glycero-3-phosphocholine (100 μM) host vesicles with or without guest oleoyl-CoA (10 μM) for 3 min at 37° C. Radiolabeled fatty acid was extracted into butanol, resolved by TLC, and quantified by scintillation spectrometry as described in Experimental Procedures.
Phospholipase A2 and Acyl-CoA Hydrolase Enzymatic Assays—Purified recombinant iPLA2β(His)6 (peptide disclosed as SEQ ID NO: 4) (0.1-1 μg) was incubated with radiolabeled phospholipid or acyl-CoA in 25 mM Tris-HCl, pH 7.2 containing 1 mM EGTA (200 μl final volume) for 1-2 mm at 37° C. […] Incorporation of acyl-CoA into the POPC/DOPS vesicles employed was determined as described previously (64). Reactions were terminated by extraction of the released radiolabeled fatty acids into 100 μl butanol, separation of fatty acids from unreacted substrate by thin layer chromatography, and quantitation by scintillation spectroscopy as previous described (65). For tests examining the effects of acyl-CoAs on calmodulin-mediated inhibition of iPLA2β, phospholipase A2 activity was continuously measured utilizing a SPECTRAmax GEMINI XS Dual-Scanning Microplate Spectrofluorometer (Molecular Devices). […] Fluorescence readings were acquired at 20 sec intervals for 5 mm at 37° C. utilizing excitation/emission wavelengths of 495/515 nm, respectively. […]

In experiment [2] the target is T1, iPLA2β. The experiment can be described thus: ESI-MS analysis of iPLA2β reaction products from POPC/BODIPY-PC vesicles. The experiment is classed as biochemical. Particulars: 5 mol % oleoyl-CoA, FIG. 11H. The method, then:
as §1
To confirm that iPLA2β was in fact hydrolyzing BODIPY-PC and that the increase in fluorescence observed was not due to either protein-fluorophore or acylCoA-fluorophore interactions, the reaction substrates and products were extracted into chloroform/methanol in the presence of internal standards and subsequently quantified and analyzed by ESI-MS (83). […]

`CCCCCCCC/C=C\CCCCCCCC(=O)SCCNC(=O)CCNC(=O)[C@H](O)C(C)(C)COP(=O)(O)OP(=O)(O)OC[C@H]1O[C@@H](n2cnc3c(N)ncnc32)[C@H](O)[C@@H]1OP(=O)(O)O` [oleoyl-CoA]: the “reversal of calmodulin-mediated inhibition of iPLA2β phospholipase A2 activity” value in experiment [1] (5 μM oleoyl-CoA) is “significant reversal”. Moreover, the “activity of CaM-inhibited iPLA2β, % of initial activity” value in experiment [1] (1 mol % oleoyl-CoA, FIG. 11B) is reported as “≈ 40%”. In experiment [1] (2.5-5 mol % oleoyl-CoA, FIG. 11C-D), the “effect on CaM mediated inhibition of iPLA2β” value was “completely eliminated CaM mediated inhibition”. The “effect on inhibition of iPLA2β by Ca2+/CaM” value in experiment [2] is recorded as “completely reversed the inhibition”.
